Reference: publication PMC8588310, “Identification and Preliminary Structure-Activity Relationship Studies of 1,5-Dihydrobenzo[e][1,4]oxazepin-2(3H)-ones That Induce Differentiation of Acute Myeloid Leukemia Cells In Vitro” (Molecules, 2021)

What was measured:
[1] = system: HL-60 cells; test: CD11b expression assay by flow cytometry in HL-60 cells; format: cell-based, human; settings: for Activity in the CD11b assay / EC50: HL-60 cells; for Activity in the CD11b assay: concentration-response; for EC50: Homo sapiens, HL-60, 96 h, 4-day (96 h) treatment, CD11b upregulation, read-out: EC50 [nM], %CD11b response in HL60 cells; for LipE (lipophilic efficiency): LipE = -LogEC50-cLogP, EC50 of CD11b assay in HL-60
Method: Cells were treated with 1000 structurally diverse small molecules selected from a commercial library. A single point testing concentration of 10 µM was used. After 4 days, cells were stained with a CD11b antibody and analysed using flow cytometry. Compounds upregulating CD11b expression greater than 10% in at least three of the cell lines were considered as potential hits. Hit confirmation was undertaken as follows: first, the hit was re-tested at 10 µM both with the CD11b antibody and an isotype control to account for nonspecific binding. Secondly, the effect of the hit on cell proliferation and viability was evaluated through staining with DAPI to evaluate the number of dead cells, and with acridine orange to detect total cell numbers. Thirdly, the induction of differentiation caused by the compounds was confirmed through morphology assessment with Giemsa staining. Finally, the molecule was resynthesised and fully characterised to confirm structural authenticity. This fresh sample was then retested in the CD11b assay to generate a concentration-response curve. The study of proliferation and morphology was performed on a panel of six cell lines: HL-60, THP-1, OCI-AML3, KG-1, Kasumi-1 and ME-1.
Thus, structure-activity relationship studies were initiated, where the potency of the new analogues was evaluated through concentration-response testing using the CD11b assay in HL-60 cells. Lipophilic efficiency (LipE), which also accounts for lipophilicity, was also used to compare the quality of the analogues. Even though multiple parameters can influence activity in a cell-based assay, LipE is a useful guide to compare analogues.
PE mouse-anti-human-CD11b/Mac-1 (ICRF44, Cat 555388) and PE-mouse-IgG1-κ-isotype control (MOPC-21, Cat 555749) were purchased from BD Bioscience. Cells were suspended in 100 μL growth media (RPMI + 10% FBS + 1% L-glutamine) at a density of 2 × 10^4 cells/well of a V-bottom 96 well plate (Corning, Cat 3894) and grown for 96 h in the presence of compound at the required concentration. After 96 h, the plate was centrifuged, media was removed, and cells were resuspended in 50 µL of blocking buffer (IMDM, no phenol red + 10% FBS) containing 2.5 μL of either CD11b or isotype control antibody and incubated on ice in the dark for 20 min. Cells were washed twice in 200 μL of staining buffer (IMDM, no phenol red + 1% FBS) before being resuspended in 200 μL of staining buffer containing 1 μg/mL of DAPI to help identify dead cells. Flow cytometry data were collected on an Attune NxT and analysed using the Attune NxT software (Life Technologies).

[2] = Semi-thermodynamic aqueous solubility; format: physicochemical; settings: aqueous (buffer or water not specified), thermodynamic from solid
Method: Determination of semi-thermodynamic solubility, metabolic stability in S9 fraction, Caco-2 permeability and PPB were performed by Cyprotex Ltd. (www.cyprotex.com, accessed on 22 October 2021) using their standard assays and as described on their website.

Row | Structure (SMILES) | Activity in the CD11b assay [1] | EC50 [1] [nM] | LipE (lipophilic efficiency) [1] | Decrease in potency compared to OXS007002 ([1]; CD11b EC50 in HL-60, vs OXS007002) [fold] | solubility thermodynamic [2] [µM]
1 | CC(C)N1C(=O)COCc2ccc(-c3cccc(S(C)(=N)=O)c3)cc21 (stereo not drawn) [Compound 27, 1-Isopropyl-8-(3-(S-methylsulfonimidoyl)phenyl)-1,5-dihydrobenzo[e][1,4]oxazepin-2(3H)-one] | removed the activity | > 30000 | – | – | –
2 | CC(C)N1C(=O)COCc2ccc(-c3cccc(NS(=O)(=O)C(F)(F)F)c3)cc21 [Compound 34, 1,1,1-Trifluoro-N-(3-(1-isopropyl-2-oxo-1,2,3,5-tetrahydrobenzo[e][1,4]oxazepin-8-yl)phenyl)methanesulfonamide] | – | > 10000 | – | – | –
3 | COc1cc(NS(C)(=O)=O)cc(-c2ccc3c(c2)N(C(C)C)C(=O)COC3)c1 [Compound 38, N-(3-(1-Isopropyl-2-oxo-1,2,3,5-tetrahydrobenzo[e][1,4]oxazepin-8-yl)-5-methoxyphenyl)methanesulfonamide] | – | > 30000 | – | – | –
4 | CC(C)N1C(=O)COCc2ccc(-c3cccc(N(C)C)c3)cc21 [Compound 30, 8-(3-(Dimethylamino)phenyl)-1-isopropyl-1,5-dihydrobenzo[e][1,4]oxazepin-2(3H)-one] | – | 12000 | 2.4 | – | –
5 | CCCS(=O)(=O)Nc1cccc(-c2ccc3c(c2)N(C(C)C)C(=O)COC3)c1 [Compound 33, N-(3-(1-Isopropyl-2-oxo-1,2,3,5-tetrahydrobenzo[e][1,4]oxazepin-8-yl)phenyl)propane-1-sulfonamide] | – | 6800 | 2.5 | 10 | –
6 | COc1cccc(-c2ccc3c(c2)N(C(C)C)C(=O)COC3)c1 [Compound 31, 1-Isopropyl-8-(3-methoxyphenyl)-1,5-dihydrobenzo[e][1,4]oxazepin-2(3H)-one] | – | > 10000 | – | – | –
7 | CC(C)N1C(=O)COCc2ccc(-c3cccc(N)c3)cc21 [Compound 29, 8-(3-Aminophenyl)-1-isopropyl-1,5-dihydrobenzo[e][1,4]oxazepin-2(3H)-one] | – | 3300 | 3.5 | – | –
8 | CC(C)N1C(=O)COCc2ccc(Oc3cccc(NS(C)(=O)=O)c3)cc21 [Compound 40, N-(3-((1-Isopropyl-2-oxo-1,2,3,5-tetrahydrobenzo[e][1,4]oxazepin-8-yl)oxy)phenyl)methanesulfonamide] | abolished activity | > 30000 | – | – | –
9 | CC(C)N1C(=O)COCc2ccc(-c3ccc(NS(C)(=O)=O)cc3)cc21 [Compound 26, N-(4-(1-Isopropyl-2-oxo-1,2,3,5-tetrahydrobenzo[e][1,4]oxazepin-8-yl)phenyl)methanesulfonamide] | – | > 30000 | – | – | –
10 | CS(=O)(=O)Nc1cccc(-c2ccc3c(c2)NC(=O)COC3)c1 [Compound 6, N-(3-(2-Oxo-1,2,3,5-tetrahydrobenzo[e][1,4]oxazepin-8-yl)phenyl)methanesulfonamide] | completely inactive | > 10000 | – | – | > 200
11 | CC(C)N1C(=O)COCc2ccc(-c3cncc(NS(C)(=O)=O)c3)cc21 [Compound 39, N-(5-(1-Isopropyl-2-oxo-1,2,3,5-tetrahydrobenzo[e][1,4]oxazepin-8-yl)pyridin-3-yl)methanesulfonamide] | abolished activity | > 30000 | – | – | –
12 | CC(C)N1C(=O)COCc2ccc(-c3cccc(C(=O)O)c3)cc21 [Compound 32, 3-(1-Isopropyl-2-oxo-1,2,3,5-tetrahydrobenzo[e][1,4]oxazepin-8-yl)benzoic acid] | – | > 30000 | – | – | –
